# Results: ChEMBL document CHEMBL1201862, “PubChem BioAssay data set” (2004)
#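 Exposure lasted 48 hours, with cells grown in 96-well plates and compounds tested at five concentrations. GI50: concentration for 50% inhibition of growth.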 Calls of active or inactive are those of the source. Cut-off read from the data, not from the text of the source: active = GI50 up to about 1.1 µM and inactive = higher.
# Experiments:
# Experiment in all cases: NCI anticancer screen, dose series, 48 h
# [1] = test system: HL-60
# [2] = test system: Hs-578T
# [3] = test system: IGROV-1
# [4] = test system: OVCAR-5
# [5] = test system: NCI-H460
# [6] = test system: BT-549
# [7] = test system: U-251
# [8] = test system: HCC 2998
# [9] = test system: CAKI-1
# [10] = test system: SK-OV-3
# [11] = test system: Malme-3M
# [12] = test system: ACHN
# [13] = test system: HCT-116
# [14] = test system: MDA-MB-435
# [15] = test system: PC-3
# [16] = test system: SN12C
# [17] = test system: SR
# [18] = test system: MOLT-4
# [19] = test system: NCI-H226
# [20] = test system: NCI-H23
# [21] = test system: NCI-H522
# [22] = test system: HOP-92
# [23] = test system: UO-31
# [24] = test system: SK-MEL-28
# [25] = test system: SK-MEL-5
# [26] = test system: SNB-75
# [27] = test system: SF-295
# [28] = test system: SF-268
# [29] = test system: A498
# [30] = test system: SK-MEL-2
# [31] = test system: DU-145
# [32] = test system: SW-620
# [33] = test system: K562
# [34] = test system: CCRF-CEM
# [35] = test system: UACC-257
# [36] = test system: 786-0
# [37] = test system: UACC-62
# [38] = test system: M14
# [39] = test system: OVCAR-4
# [40] = test system: LOX IMVI
# [41] = test system: MDA-N
# [42] = test system: KM12
# [43] = test system: MCF7
# [44] = test system: COLO 205
# [45] = test system: RXF 393
# [46] = test system: OVCAR-3
# [47] = test system: EKVX
# [48] = test system: MDA-MB-231
# [49] = test system: T47D
# [50] = test system: SF-539
# [51] = test system: HT-29
# [52] = test system: HCT-15
# [53] = test system: NCI/ADR-RES
# [54] = test system: SNB-19
# [55] = test system: OVCAR-8
# [56] = test system: RPMI-8226
# [57] = test system: TK-10
# [58] = test system: HOP-62
# [59] = test system: A549
smiles,measurement,setting,value
CCOC(=O)[C@@H]1[C@@H]2NC(=O)N[C@@]1(C)Oc1ccccc12,GI50,[1],> 100 µM (inactive)
same,GI50,[2],> 100 µM (inactive)
same,GI50,[3],> 100 µM (inactive)
same,GI50,[4],> 100 µM (inactive)
same,GI50,[5],> 100 µM (inactive)
same,GI50,[6],> 100 µM (inactive)
same,GI50,[7],> 100 µM (inactive)
same,GI50,[8],> 100 µM (inactive)
same,GI50,[9],> 100 µM (inactive)
same,GI50,[10],> 100 µM (inactive)
same,GI50,[11],> 100 µM (inactive)
same,GI50,[12],> 100 µM (inactive)
same,GI50,[13],> 100 µM (inactive)
same,GI50,[14],> 100 µM (inactive)
same,GI50,[15],> 100 µM (inactive)
same,GI50,[16],> 100 µM (inactive)
same,GI50,[17],> 100 µM (inactive)
same,GI50,[18],> 100 µM (inactive)
same,GI50,[19],> 100 µM (inactive)
same,GI50,[20],> 100 µM (inactive)
same,GI50,[21],> 100 µM (inactive)
same,GI50,[22],> 100 µM (inactive)
same,GI50,[23],> 100 µM (inactive)
same,GI50,[24],> 100 µM (inactive)
same,GI50,[25],> 100 µM (inactive)
same,GI50,[26],> 100 µM (inactive)
same,GI50,[27],> 100 µM (inactive)
same,GI50,[28],> 100 µM (inactive)
same,GI50,[29],> 100 µM (inactive)
same,GI50,[30],> 100 µM (inactive)
same,GI50,[31],> 100 µM (inactive)
same,GI50,[32],> 100 µM (inactive)
same,GI50,[33],> 100 µM (inactive)
same,GI50,[34],> 100 µM (inactive)
same,GI50,[35],> 100 µM (inactive)
same,GI50,[36],> 100 µM (inactive)
same,GI50,[37],> 100 µM (inactive)
same,GI50,[38],> 100 µM (inactive)
same,GI50,[39],> 100 µM (inactive)
same,GI50,[40],> 100 µM (inactive)
same,GI50,[41],> 100 µM (inactive)
same,GI50,[42],> 100 µM (inactive)
same,GI50,[43],> 100 µM (inactive)
same,GI50,[44],> 100 µM (inactive)
same,GI50,[45],> 100 µM (inactive)
same,GI50,[46],> 100 µM (inactive)
same,GI50,[47],> 100 µM (inactive)
same,GI50,[48],> 100 µM (inactive)
same,GI50,[49],> 100 µM (inactive)
same,GI50,[50],> 100 µM (inactive)
same,GI50,[51],> 100 µM (inactive)
same,GI50,[52],> 100 µM
same,GI50,[53],> 100 µM (inactive)
same,GI50,[54],> 100 µM (inactive)
same,GI50,[55],> 100 µM (inactive)
same,GI50,[56],> 100 µM (inactive)
same,GI50,[57],> 100 µM (inactive)
same,GI50,[58],> 100 µM (inactive)
Cc1nc2ccccc2n1C(=O)c1c(F)c(F)c(F)c(F)c1F,GI50,[1],4.49 µM (inactive)
same,GI50,[2],26.5 µM (inactive)
same,GI50,[3],19.1 µM (inactive)
same,GI50,[4],19 µM (inactive)
same,GI50,[5],5.09 µM (inactive)
same,GI50,[6],21 µM (inactive)
same,GI50,[7],19 µM (inactive)
same,GI50,[8],17.6 µM (inactive)
same,GI50,[9],16.7 µM (inactive)
same,GI50,[10],22.3 µM (inactive)
same,GI50,[11],19.8 µM (inactive)
same,GI50,[12],22.9 µM (inactive)
same,GI50,[13],4.14 µM (inactive)
same,GI50,[14],4.99 µM (inactive)
same,GI50,[15],17.5 µM (inactive)
same,GI50,[16],6.01 µM (inactive)
same,GI50,[17],2.34 µM (inactive)
same,GI50,[18],4.07 µM (inactive)
same,GI50,[19],18.8 µM (inactive)
same,GI50,[20],17 µM (inactive)
same,GI50,[21],3.01 µM (inactive)
same,GI50,[22],11.7 µM (inactive)
same,GI50,[23],17 µM (inactive)
same,GI50,[24],29.4 µM (inactive)
same,GI50,[25],12.1 µM (inactive)
same,GI50,[26],25.4 µM (inactive)
same,GI50,[27],28.8 µM (inactive)
same,GI50,[28],27 µM (inactive)
same,GI50,[29],20.3 µM (inactive)
same,GI50,[30],7.41 µM (inactive)
same,GI50,[31],26.5 µM (inactive)
same,GI50,[32],5.09 µM (inactive)
same,GI50,[33],5.48 µM (inactive)
same,GI50,[34],5.12 µM (inactive)
same,GI50,[35],13.7 µM (inactive)
same,GI50,[59],30.4 µM (inactive)
same,GI50,[37],16.1 µM (inactive)
same,GI50,[38],10.8 µM (inactive)
same,GI50,[39],14.5 µM (inactive)
same,GI50,[40],8.93 µM (inactive)
same,GI50,[41],8.69 µM (inactive)
same,GI50,[42],3.13 µM (inactive)
same,GI50,[43],5.12 µM (inactive)
same,GI50,[44],14.8 µM (inactive)
same,GI50,[45],15.5 µM (inactive)
same,GI50,[46],24.3 µM (inactive)
same,GI50,[47],28.3 µM (inactive)
same,GI50,[48],16.2 µM (inactive)
same,GI50,[49],59.8 µM (inactive)
same,GI50,[50],11.6 µM (inactive)
same,GI50,[51],4.98 µM (inactive)
same,GI50,[52],11.2 µM
same,GI50,[53],17.5 µM (inactive)
same,GI50,[54],29.5 µM (inactive)
same,GI50,[55],17.7 µM (inactive)
same,GI50,[56],4.15 µM (inactive)
same,GI50,[57],18.3 µM (inactive)
same,GI50,[58],23.9 µM (inactive)
C[C@]12CC[C@H]3[C@@H](CCC4=CC(=O)CC[C@@]43C)[C@@H]1CC[C@@H]2C(=O)COS(=O)(=O)c1ccc(Br)cc1,GI50,[1],4.69 µM (inactive)
same,GI50,[2],20.4 µM (inactive)
same,GI50,[3],1.6 µM (inactive)
same,GI50,[4],18.1 µM (inactive)
same,GI50,[5],10.1 µM (inactive)
same,GI50,[6],10 µM (inactive)
same,GI50,[7],8.93 µM (inactive)
same,GI50,[8],2.09 µM (inactive)
same,GI50,[9],7.76 µM (inactive)
same,GI50,[10],15.1 µM (inactive)
same,GI50,[11],3.49 µM (inactive)
same,GI50,[12],10.9 µM (inactive)
same,GI50,[14],9.55 µM (inactive)
same,GI50,[15],8.85 µM (inactive)
same,GI50,[16],5.97 µM (inactive)
same,GI50,[17],1.4 µM (inactive)
same,GI50,[18],1.41 µM (inactive)
same,GI50,[19],13.2 µM (inactive)
same,GI50,[20],2.37 µM (inactive)
same,GI50,[21],1.59 µM (inactive)
same,GI50,[22],5.94 µM (inactive)
same,GI50,[23],1.7 µM (inactive)
same,GI50,[24],21 µM (inactive)
same,GI50,[25],8.77 µM (inactive)
same,GI50,[26],17.5 µM (inactive)
same,GI50,[27],19.3 µM (inactive)
same,GI50,[28],8.93 µM (inactive)
same,GI50,[29],20.2 µM (inactive)
same,GI50,[30],8.38 µM (inactive)
same,GI50,[31],16.8 µM (inactive)
same,GI50,[32],9.4 µM (inactive)
same,GI50,[33],4.09 µM (inactive)
same,GI50,[34],0.207 µM (active)
same,GI50,[35],13.7 µM (inactive)
same,GI50,[59],18.7 µM (inactive)
same,GI50,[37],16 µM (inactive)
same,GI50,[38],6.55 µM (inactive)
same,GI50,[39],4.5 µM (inactive)
same,GI50,[40],1.61 µM (inactive)
same,GI50,[41],0.379 µM (active)
same,GI50,[42],15.1 µM (inactive)
same,GI50,[43],8.15 µM (inactive)
same,GI50,[44],20.5 µM (inactive)
same,GI50,[45],14.5 µM (inactive)
same,GI50,[46],6.43 µM (inactive)
same,GI50,[47],7.67 µM (inactive)
same,GI50,[48],6.49 µM (inactive)
same,GI50,[49],9.35 µM (inactive)
same,GI50,[50],9.25 µM (inactive)
same,GI50,[51],11.8 µM (inactive)
same,GI50,[52],14.2 µM
same,GI50,[53],10.6 µM (inactive)
same,GI50,[54],19.5 µM (inactive)
same,GI50,[55],3.61 µM (inactive)
same,GI50,[56],2.35 µM (inactive)
same,GI50,[57],18.3 µM (inactive)
same,GI50,[58],17 µM (inactive)
